Our source for the EC50 values is patent US20100063065A1 (Inpharmatica Limited, priority 2005, published 2010).

This assay has as its target T1, PPARδ (Homo sapiens, UniProt Q03181).
T1 construct: fused to amino acids 147-441 of PPARδ downstream of CMV promoter; expressed in transfected cells; host or cells: HEK293 cells, transiently transfected with pFACMV-PPARδ using Fugene
T1 sequence (Q03181 147-441): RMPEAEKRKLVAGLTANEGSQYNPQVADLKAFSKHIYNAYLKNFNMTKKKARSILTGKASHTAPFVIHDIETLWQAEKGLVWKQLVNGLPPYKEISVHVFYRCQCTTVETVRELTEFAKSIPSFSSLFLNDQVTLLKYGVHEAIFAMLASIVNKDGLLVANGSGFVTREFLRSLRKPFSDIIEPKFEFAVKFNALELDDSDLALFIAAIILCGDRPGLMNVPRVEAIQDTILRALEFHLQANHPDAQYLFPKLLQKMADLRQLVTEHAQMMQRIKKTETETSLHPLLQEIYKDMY
Nature of the assay: Transactivation assay (PPARδ GAL4 assay) in transiently transfected HEK293 cells. It counts as cell-based. Particulars: luciferase reporter. The procedure, abridged: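 HEK293 cells transiently co-transfected with GAL4 DBD (aa 1-147)–PPARδ (aa 147-441) fusion and 5×GAL4-luciferase reporter, then exposed 24 h to compound (final 0-30 μM) in OptiMEM at 37° C. Luminescence read; activity as percent of GW501516 control, EC50 from sigmoidal dose-response fit.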
Background: Reporter assays use an easily measured gene product as a stand-in for the process of interest.

Consider `CCc1cc(C(=O)c2ccc(OC(F)(F)F)cc2)c(NC(=O)CNC(C)(C)C(=O)O)s1` [Example 76, 2-({[5-Ethyl-3-(4-trifluoromethoxy-benzoyl)-thiophen-2-ylcarbamoyl]-methyl}-amino)-2-methyl-propionic acid], for which the EC50 (in general, the midpoint of the concentration-response curve) (Table 1) was less than 100 nM. In the case of `CCc1cc(C(=O)c2ccc(OC(F)(F)F)cc2)c(NC(=O)CNC(CC(C)C)C(=O)O)s1` (centres unmarked) [Example 77, 2-({[5-Ethyl-3-(4-trifluoromethoxy-benzoyl)-thiophen-2-ylcarbamoyl]-methyl}-amino)-4-methyl-pentanoic acid], for the setting “Table 1”, the EC50 was less than 100 nM.

The compound `CCc1cc(C(=O)c2ccc(OC(F)(F)F)cc2)c(NC(=O)CN[C@@H](C(=O)O)C(C)C)s1` [Example 78, (R)-2-({[5-Ethyl-3-(4-trifluoromethoxy-benzoyl)-thiophen-2-ylcarbamoyl]-methyl}-amino)-3-methyl-butyric acid] yielded an EC50 (Table 1) of 1000 to 30000 nM. Turning to `CCc1cc(C(=O)c2ccc(OC(F)(F)F)cc2)c(NC(=O)CN[C@H](C(=O)O)C(C)C)s1` [Example 79, (S)-2-({[5-Ethyl-3-(4-trifluoromethoxy-benzoyl)-thiophen-2-ylcarbamoyl]-methyl}-amino)-3-methyl-butyric acid], the EC50 (Table 1) was less than 100 nM. Same read-out and setting: then `CCc1cc(C(=O)c2ccc(OC(F)(F)F)cc2)c(NC(=O)CNC(CC)C(=O)O)s1` (centres unmarked) [Example 80, 2-({[5-Ethyl-3-(4-trifluoromethoxy-benzoyl)-thiophen-2-ylcarbamoyl]-methyl}-amino)-butyric acid], with less than 100 nM. Take `CCc1cc(C(=O)c2ccc(OC(F)(F)F)cc2)c(NC(=O)CNCC(=O)O)s1` [Example 81, ({[5-Ethyl-3-(4-trifluoromethoxy-benzoyl)-thiophen-2-ylcarbamoyl]-methyl}-amino)-acetic acid]: the EC50 (Table 1) was in the range of 100 to 1000 nM.

`CCc1cc(C(=O)c2ccc(OC(F)(F)F)cc2)c(NC(=O)CNC2(C(=O)O)CC2)s1` [Example 82, 1-({[5-Ethyl-3-(4-trifluoromethoxy-benzoyl)-thiophen-2-ylcarbamoyl]-methyl}-amino)-cyclopropanecarboxylic acid] showed an EC50 (Table 1) of 1000 to 30000 nM. The same measure, in the same setting: then `CCc1cc(C(=O)c2ccc(-c3ccc(F)cc3)cc2)c(NC(=O)CNC(C)(C)C(=O)O)s1` [Example 83, 2-({[5-Ethyl-3-(4′-fluoro-biphenyl-4-carbonyl)-thiophen-2-ylcarbamoyl]-methyl}-amino)-2-methyl-propionic acid], with less than 100 nM; and `CCc1cc(C(=O)c2cccc(-c3ccc(OC(F)(F)F)cc3)c2)c(NC(=O)CNC(C)(C)C(=O)O)s1` [Example 84, 2-({[5-Ethyl-3-(4′-trifluoromethoxy-biphenyl-3-carbonyl)-thiophen-2-ylcarbamoyl]-methyl}-amino)-2-methyl-propionic acid], with 100 to 1000 nM. Same read-out and setting: for `CCc1cc(C(=O)c2cccc(-c3ccc(F)cc3)c2)c(NC(=O)CNC(C)(C)C(=O)O)s1` [Example 85, 2-({[5-Ethyl-3-(4′-fluoro-biphenyl-3-carbonyl)-thiophen-2-ylcarbamoyl]-methyl}-amino)-2-methyl-propionic acid] the value was 100 to 1000 nM; for `CC(C)(NCC(=O)Nc1sc(Cl)cc1C(=O)c1ccc(OC(F)(F)F)cc1)C(=O)O` [Example 86, 2-({[5-Chloro-3-(4-trifluoromethoxy-benzoyl)-thiophen-2-ylcarbamoyl]-methyl}-amino)-2-methyl-propionic acid], 100 to 1000 nM; for `CCc1cc(C(=O)c2ccc(Cl)cc2)c(NC(=O)C(C)N(C)CC(=O)O)s1` (centres unmarked) [Example 87, ({1-[3-(4-Chloro-benzoyl)-5-ethyl-thiophen-2-ylcarbamoyl]-ethyl}-methyl-amino)-acetic acid], 100 to 1000 nM.

For `CCc1cc(C(=O)c2ccc(OC)cc2)c(NC(=O)CSc2cccc(OCC(=O)O)c2)s1` [Example 88, (3-{[5-Ethyl-3-(4-methoxy-benzoyl)-thiophen-2-ylcarbamoyl]-methylsulfanyl}-phenoxy)-acetic acid], the EC50 (Table 1) lay in the range of 1000 to 30000 nM. Same read-out and setting: then `CCc1cc(C(=O)c2ccc(OC)cc2)c(NC(=O)CSc2ccc(OCC(=O)O)cc2)s1` [Example 89, (4-{[5-Ethyl-3-(4-methoxy-benzoyl)-thiophen-2-ylcarbamoyl]-methylsulfanyl}-phenoxy)-acetic acid], with 1000 to 30000 nM; and `CCc1cc(C(=O)c2ccc(OC)cc2)c(NC(=O)CSc2cccc(C(=O)O)c2)s1` [Example 90, 3-{[5-Ethyl-3-(4-methoxy-benzoyl)-thiophen-2-ylcarbamoyl]-methylsulfanyl}-benzoic acid], with 1000 to 30000 nM; and `CCc1cc(C(=O)c2ccc(OC)cc2)c(NC(=O)CSc2ccc(OCC(=O)O)c(C)c2)s1` [Example 91, (4-{[5-Ethyl-3-(4-methoxy-benzoyl)-thiophen-2-ylcarbamoyl]-methylsulfanyl}-2-methyl-phenoxy)-acetic acid], with 1000 to 30000 nM. As to `CCc1cc(C(=O)c2ccc(OC)cc2)c(NC(=O)CSc2ccc(OC(C)(C)C(=O)O)cc2)s1` [Example 92, 2-(4-{[5-Ethyl-3-(4-methoxy-benzoyl)-thiophen-2-ylcarbamoyl]-methylsulfanyl}-phenoxy)-2-methyl-propionic acid], the EC50 (Table 1) was in the range of 100 to 1000 nM.

Turning to `CCc1cc(C(=O)c2ccc(OC(F)(F)F)cc2)c(NC(=O)CSc2ccc(OCC(=O)O)cc2)s1` [Example 93], under “Table 1”, the EC50 was 100 to 1000 nM.

`CCc1cc(C(=O)c2ccc(OC(F)(F)F)cc2)c(NC(=O)CSc2ccc(OCC(=O)O)c(C)c2)s1` [Example 94, (4-{[5-Ethyl-3-(4-trifluoromethoxy-benzoyl)-thiophen-2-ylcarbamoyl]-methylsulfanyl}-2-methyl-phenoxy)-acetic acid] came in with an EC50 (Table 1) of 100 to 1000 nM. Under “Table 1”, `CCc1cc(C(=O)c2ccc(OC(F)(F)F)cc2)c(NC(=O)CSc2ccc(OC(C)(C)C(=O)O)cc2)s1` [Example 95, 2-(4-{[5-Ethyl-3-(4-trifluoromethoxy-benzoyl)-thiophen-2-ylcarbamoyl]-methylsulfanyl}-phenoxy)-2-methyl-propionic acid] showed an EC50 of 100 to 1000 nM. On the same count and under the same terms, then `CCc1cc(C(=O)c2ccc(OC(F)(F)F)cc2)c(NC(=O)CSc2ccc(CCC(=O)O)cc2)s1` [Example 96, 3-(4-{[5-Ethyl-3-(4-trifluoromethoxy-benzoyl)-thiophen-2-ylcarbamoyl]-methylsulfanyl}-phenyl)-propionic acid], with 100 to 1000 nM; and `CCc1cc(C(=O)c2ccc(Cl)cc2)c(NC(=O)c2ccc(OCC(=O)O)cc2)s1` [Example 97, {4-[3-(4-Chloro-benzoyl)-5-ethyl-thiophen-2-ylcarbamoyl]-phenoxy}-acetic acid], with 100 to 1000 nM; and `CCc1cc(C(=O)c2ccc(OC(F)(F)F)cc2)c(NC(=O)c2cccc(SCC(=O)O)c2)s1` [Example 98, {3-[5-Ethyl-3-(4-trifluoromethoxy-benzoyl)-thiophen-2-ylcarbamoyl]-phenylsulfanyl}-acetic acid], with 100 to 1000 nM. Still for that read-out and setting: then `CCc1cc(C(=O)c2ccc(OC(F)(F)F)cc2)c(NC(=O)c2ccc(OCC(=O)O)cc2)s1` [Example 99, {4-[5-Ethyl-3-(4-trifluoromethoxy-benzoyl)-thiophen-2-ylcarbamoyl]-phenoxy}-acetic acid], with less than 100 nM; and `CCc1cc(C(=O)c2ccc(OC(F)(F)F)cc2)c(NC(=O)c2cccc(OCC(=O)O)c2)s1` [Example 100, {3-[5-Ethyl-3-(4-trifluoromethoxy-benzoyl)-thiophen-2-ylcarbamoyl]-phenoxy}-acetic acid], with 100 to 1000 nM. Same read-out and setting: for `CCc1cc(C(=O)c2ccc(OC(F)(F)F)cc2)c(NC(=O)c2ccc(OCC(=O)O)c(C)c2)s1` [Example 101, {4-[5-Ethyl-3-(4-trifluoromethoxy-benzoyl)-thiophen-2-ylcarbamoyl]-2-methyl-phenoxy}-acetic acid] the value was less than 100 nM. Take `CCc1cc(C(=O)c2ccc(OC(F)(F)F)cc2)c(NC(=O)c2ccc(OC(C)(C)C(=O)O)cc2)s1` [Example 102, 2-{4-[5-Ethyl-3-(4-trifluoromethoxy-benzoyl)-thiophen-2-ylcarbamoyl]-phenoxy}-2-methyl-propionic acid]: the EC50 (Table 1) was in the range of 100 to 1000 nM. The compound `CCc1cc(C(=O)c2ccc(OC(F)(F)F)cc2)c(NC(=O)c2ccc(SCC(=O)O)cc2)s1` [Example 103, {4-[5-Ethyl-3-(4-trifluoromethoxy-benzoyl)-thiophen-2-ylcarbamoyl]-phenylsulfanyl}-acetic acid] gave an EC50 (Table 1) of 100 to 1000 nM. Take `CCc1cc(C(=O)c2ccc(OC(F)(F)F)cc2)c(NC(=O)CCCC(=O)O)s1` [Example 104, 4-[5-Ethyl-3-(4-trifluoromethoxy-benzoyl)-thiophen-2-ylcarbamoyl]-butyric acid]: for the setting “Table 2”, the EC50 lay within 100 to 1000 nM. `CCc1cc(C(=O)c2ccc(OC(F)(F)F)cc2)c(NC(=O)CCCSCC(=O)O)s1` [Example 105, {3-[5-Ethyl-3-(4-trifluoromethoxy-benzoyl)-thiophen-2-ylcarbamoyl]-propylsulfanyl}-acetic acid] gave an EC50 (Table 2) of 100 to 1000 nM. `CCc1cc(C(=O)c2ccc(OC(F)(F)F)cc2)c(NC(=O)C(C)SCC(=O)O)s1` (centres unmarked) [Example 106, {1-[5-Ethyl-3-(4-trifluoromethoxy-benzoyl)-thiophen-2-ylcarbamoyl]-ethylsulfanyl}-acetic acid] came in with an EC50 (Table 2) of less than 100 nM.

As to `CCc1cc(C(=O)c2ccc(OC(F)(F)F)cc2)c(NC(=O)C(C)(C)SCC(=O)O)s1` [Example 107, {1-[5-Ethyl-3-(4-trifluoromethoxy-benzoyl)-thiophen-2-ylcarbamoyl]-1-methyl-ethylsulfanyl}-acetic acid], for the setting “Table 2”, the EC50 fell in the range of 100 to 1000 nM.
